According to patent US20160136109A1, “COMPOSITIONS FOR TISSUE STABILIZATION” (Vatrix Medical, Inc., priority 2008, published 2016):

Columns and labels:
[1] = tested on: porcine carotid arteries exposed to porcine pancreatic elastase; test: Tissue resistance to elastase degradation after treatment; type: biochemical; conditions: 0.6% Glut, 0.15% PGG, 20 minutes total treatment (cocktail 20 min or 10 min + 10 min sequential); elastase 3 units/mL 24 hrs 37° C.; compared to saline controls
Description: This example involves model results based on in vitro treatment of tissue samples for period of time that are realistic for in vivo applications. Specifically, tissue resistance to elastase degradation after treatment with various reagents is discussed. Specifically, porcine carotid arteries were treated with saline (control, for 20 minutes), Glut (for 20 minutes), PGG (for 20 minutes), or a combination of the two (Glut+PGG for 20 minutes, or Glut for 10 minutes followed by a separate incubation with PGG for 10 minutes). Concentrations of the reagents used were 0.6% (w/v) for Glut, 0.15% (w/v) for PGG and 9 g/L for physiological saline.
The treated tissue was then exposed to an in vitro elastase digestion assay to subject the treated tissue to digestion for 24 hrs. Briefly, tissue samples were incubated individually with 1 mL of 3 units/mL porcine pancreatic elastase (Elastin Products Company; Owensville, Mo.) dissolved in 100 mM Tris buffer, 1 mM CaCl2, 0.02% NaN3, pH 7.8. Incubation with the elastase was conducted for 24 hrs at 37° C. with orbital shaking at 500 rpm. Because the values shown are percentage of digestion, the lower the value, the better the reagent used performed in resisting elastase degradation. […] It should be noted that the digestion model used in this experiment is a very accelerated and aggressive digestion model.

[2] = tested on: porcine aortic wall exposed to type I collagenase; test: Tissue resistance to collagenase degradation after treatment; type: biochemical; conditions: type I collagenase 150 U/mL, 24 hours, 37° C.; fresh sample over 85% digested
Description: Tissue resistance to collagenase degradation after treatment with various reagents is discussed. Specifically, samples of porcine aortic wall were either left untreated (fresh) or treated with Glut alone or Glut followed by tannic acid (TA). Glut treatment was performed with 0.6% (w/v) Glut for 1 day, and then 0.2% (w/v) Glut for 7 days at room temperature; Glut/TA treatment was performed with 0.6% (w/v) Glut for 1 day, and then 0.2% (w/v) Glut for 7 days at room temperature followed by 0.15% (w/v) TA for 4 days at 37° C. The treated samples were rinsed 3 times (1 hour each) in 100 mL water, and lyophilized to record dry weight. Samples with the amount of ˜15 to 25 mg dry weight were immersed in 1.2 mL of type I collagenase (150 U/mL) dissolved in 50 mM Tris buffer, 10 mM CaCl2, pH 7.4, and incubated at 37° C. with orbital shaking at 650 rpm for 24 hours. Following this exposure to collagenase, samples were centrifuged (10000 rpm, 10 minutes, 4° C.), individually rinsed three times in 1 mL water, lyophilized to obtain dry weight after collagenase, and the percent of digested tissue was calculated.
The percentage of tissue digestion was compared in graphical format in FIG. 4.

[3] = collagen crosslinking/stabilization; cited from earlier work

percent of digested tissue (mass loss) [2] | SMILES | percentage digestion by elastase (resistance to degradation) [1] | toxicity [3]
over 20% | O=CCCCC=O [Glut, Glutaraldehyde] | slightly improved the resistance of the tissue to degradation | –
– | COC(=O)C1=CO[C@@H](O)[C@@H]2C(CO)=CC[C@H]12 [genipin, Genipin] | – | relatively non-toxic
